Test results from patent US7148231B2, “[6,7-Bis(2-methoxy-ethoxy)-quinazolin-4-yl]-(3-ethynyl-phenyl)amine hydrochloride polymorph” (Hoffmann-La Roche Inc., priority 2003, dated 2006).
Like-named read-outs stand apart in the source and are kept apart here.

Key:
[1] = Solubility after 20 min equilibration at 20° C.; type: physicochemical; conditions: hydrochloride; for solubility in aqueous buffer (pH 1): aqueous buffer solution pH 1, 20 min equilibration at 20° C.; for solubility in water: 20 min equilibration at 20° C.
Procedure: The solubility of polymorphs A, B, and E measured after 20 min equilibration at 20° C. in either water or aqueous buffer solution (pH 1) are compiled the following table.: […]

[2] = polymorphs described in WO 01/34574; cited from earlier work
[3] = polymorphs described in WO 01/34574; cited from earlier work; remark: listed apart in the source
[4] = Thermodynamic stability (melting point, heat of solution, equilibration experiments in suspension); type: physicochemical; conditions: comparison of polymorphs E, A and B; hydrochloride
Procedure: The thermodynamic stability of the individual crystalline polymorphs E, A and B of [6,7-Bis(2-methoxy-ethoxy)-quinazolin-4-yl]-(3-ethynyl-phenyl)amine hydrochloride were measured according to methods known in the art, e.g., from Byrn (Byrn, S. R., Pfeiffer, R. R., Stowell, J. G., “Solid-State Chemistry of Drugs”, SSCI Inc., West Lafayette, Ind., 1999).

[5] = polymorphs described in WO 01/34574; cited from earlier work; remark: listed apart in the source
Dissolution rate = type: physicochemical; conditions: compared with polymorph B

SMILES | solubility in aqueous buffer (pH 1) [1] [%] | solubility in water [1] [%] | dissolution rate [2] | solubility [3] | thermodynamic stability [4] | thermodynamic stability [5] | dissolution rate (Dissolution rate)
C#Cc1cccc(Nc2ncnc3cc(OCCOC)c(OCCOC)cc23)c1.Cl [polymorph A, [6,7-Bis(2-methoxy-ethoxy)-quinazolin-4-yl]-(3-ethynyl-phenyl)amine hydrochloride] | 0.017 | 0.194 | better solubility and dissolution rate than polymorph B | better solubility and dissolution rate than polymorph B |  |  | 
C#Cc1cccc(Nc2ncnc3cc(OCCOC)c(OCCOC)cc23)c1.Cl [polymorph B, [6,7-Bis(2-methoxy-ethoxy)-quinazolin-4-yl]-(3-ethynyl-phenyl)amine hydrochloride] | 0.003 | 0.098 |  |  | more stable than polymorphs E and A | thermodynamically more stable than polymorph A | 
C#Cc1cccc(Nc2ncnc3cc(OCCOC)c(OCCOC)cc23)c1.Cl [polymorph E, [6,7-Bis(2-methoxy-ethoxy)-quinazolin-4-yl]-(3-ethynyl-phenyl)amine hydrochloride] | 0.011 | 0.191 |  |  | thermodynamically more stable than polymorph A |  | better solubility and dissolution rate than the known polymorph B
